According to patent US20240344014A1, “3D SHELL MICR[…] FOR EL[…] ORGANOIDS” (The Johns Hopkins University, priority 2023, published 2024):

Test system: brain organoids
Assay: 3D shell MEA recording of brain organoid electrical activity with glutamate stimulation
Format: cell-based, human
Settings: brain organoid in 3D shell MEA
Excerpt: A 9-week brain organoid was placed at the center of the shell electrodes during self-folding, which allowed the organoid to be enveloped within the leaflets with the PEDOT: PSS electrodes in intimate contact with the organoid (FIG. 10B). A glass cylinder was placed around the device to hold the cell media. Electrode outputs were fabricated for signal acquisition (FIG. 10A). The three PEDOT: PSS electrodes on the leaflets successfully recorded the field potential of the enveloped brain organoid (FIG. 10C, FIG. 11). […] The overlaid spike waveform indicates an average spike duration of ˜2 ms, with varied amplitude during the recording (FIG. 10E). We note that we can add more electrodes to the leaflets to improve the recording (FIGS. 12A-12F, FIGS. 13A-13D).
We further confirm that the signal recorded is from the brain organoids by examining the response to 20 μM glutamate neurotransmitter added to the culture media that served as a positive control for the spontaneous recording (23, 37). […]
After preprocessing the raw signals, we detected spikes separate for each channel using a threshold-based method, where the threshold is automatically set to be 5σn. […] After spike locations were detected, we isolated them by windows of length 3.5 ms. […]

With `N[C@@H](CCC(=O)O)C(=O)O` [glutamate] the “spike signal-to-noise ratio (SNR), increase of median (amplitude of firing spikes)” value (20 μM glutamate added to the culture media, before vs after application) was 57.6% and the “inter-spike-interval (ISI) of glutamate-induced signals” value (20 μM glutamate, before vs after stimulation) was “longer”.
